Minimal effective dose data for 41 compounds are collected here from patent publication US6300368A, “Anilide derivatives and antiarrhythmic agents containing the same” (priority 1998, dated 2001).

SMILES strings stand for the structures. Where a name gives a salt, the structure may show the parent alone.

This assay has as its system aconitin-induced atrial fibrillation. Put plainly: Aconitin-induced atrial fibrillation model in anaesthetized dogs (Pharmacological Trial 1). Type of assay: in vivo, dog. The following applies: Canis lupus familiaris; intravenous, anesthetized dogs, as hydrochloride; read-out: minimum dose level which suppresses atrial fibrillation. As to the method: Pharmacological Trial 1: Evaluation of effectiveness in aconitin-induced atrial fibrillation model (dogs) Evaluation was performed according to K. Hashimoto (Jpn. J. Pharmacol., Vol. 46, 349-358, 1988) as follows:
Method: Dog was anesthetized and thoracotomy was made. Persistent atrial fibrillation was induced by placing a piece of filter paper impregnated with 0.5% aconitin solution (20 to 30 μl) on the right atrium. […] Onset and suppression of atrial fibrillation were monitored electrocardiographically by placing Ag--AgCl bipolar electrode on the right atrial auricle.
Results: Each compound in Examples 1 to 87 suppressed atrial fibrillation at least following dose level (all compounds were used in the form of hydrochloride).
Take `COc1cc(NC(=O)c2c(OC)cccc2OC)ccc1OCCNC(C)C.Cl` [Example 4, 4'-[2-(isopropylamino)ethoxy]-2,6-dimethoxy-3'-methoxybenzanilide Hydrochloride]: the minimal effective dose was 10 mg/kg.
Under `COCCC(=O)Nc1ccc(OCCNC2CCCC2)c(OC)c1` [Example 61, 4'-[2-(Cyclopentylamino)ethoxy]-3'-methoxy-3-methoxypropananilide] stands 10 mg/kg.
On to `CCNCCOc1c(C)cc(NC(=O)c2ccccc2S(C)(=O)=O)cc1C.Cl` [Example 81, 4'-[2-(Ethylamino)ethoxy]-2-methanesulfonyl-3',5'-dimethylbenzanilide Hydrochloride], for which the minimal effective dose amounted to 3 mg/kg.
For the compound `CCN(CC)CCOc1ccc(NC(=O)c2c(OC)cccc2OC)cc1.Cl` [Example 2, 4'-[2-(diethylamino)ethoxy]-2,6-dimethoxybenzanilide Hydrochloride], the minimal effective dose came to 10 mg/kg.
For the compound `Cc1cc(NC(=O)C2CCOC2)cc(C)c1OCCNC(C)C.Cl` (centres unmarked) [Example 84, 4'-[2-(Isopropylamino)ethoxy]-3',5'-dimethyl-2,3,4,5-tetrahydro-3-furanilide Hydrochloride], the minimal effective dose is 10 mg/kg.
As for `COCCCNCCOc1ccc(NC(=O)c2ccccc2NS(C)(=O)=O)cc1.Cl` [Example 49, 2-Methanesulfonamido-4'-[2-[(3-methoxypropyl)amino]ethoxy]benzanilide Hydrochloride], the minimal effective dose worked out at 10 mg/kg.
In the case of `Cc1cccc(C)c1C(=O)Nc1ccc(OCCNC(C)C)cc1` [Example 31, 4'-[2-(Isopropylamino)ethoxy]-2,6-dimethylbenzanilide], the minimal effective dose was 10 mg/kg.
Take `CCNCCOc1ccc(NC(=O)CCOC)cc1` [Example 24, 4'-[(2-Ethylamino)ethoxy]-3-methoxypropananilide]: the minimal effective dose worked out at 10 mg/kg.
Take `Cc1cc(OCCNC(C)C)ccc1NC(=O)c1ccccc1NS(C)(=O)=O.Cl` [Example 70, 4'-[2-(Isopropylamino)ethoxy]-2-methanesulfonamido-2'-methylbenzanilide Hydrochloride]: the minimal effective dose amounted to 3 mg/kg.
On to `CC(C)NCCOc1ccc(NC(=O)C2CCOC2)cc1.Cl` (centres unmarked) [Example 33, 4'-[2-(Isopropylamino)ethoxy]-2,3,4,5-tetrahydro-3-furanilide Hydrochloride], for which the minimal effective dose amounted to 10 mg/kg.
For the compound `CCN(CC)CCOc1ccc(NC(=O)c2c(OC)cccc2OC)cc1OC` [Example 63, 4'-[2-(Diethylamino)ethoxy]-2,6-dimethoxy-3-methoxybenzanilide], the minimal effective dose worked out at 10 mg/kg.
The result for `O=C(Nc1ccc(OCCNC2CC2)cc1)C1CCOCC1` [Example 52, 4'-[2-(Cyclopropylamino)ethoxy]-3,4,5,6-tetrahydro-2H-pyran-4-carboxanilideHydrochloride] reads 3 mg/kg.
As for `CC(C)NCCOc1ccc(NC(=O)c2ccoc2)cc1.Cl` [Example 35, 4'-[2-(Isopropylamino)ethoxy]-3-furanilide Hydrochloride], the minimal effective dose was found to be 10 mg/kg.
Turning to `CCOCCNCCOc1ccc(NC(=O)c2ccccc2NS(C)(=O)=O)cc1` [Example 47, 4'-[2-[(2-Ethoxyethyl)amino]ethoxy]-2-(methanesulfonamido)benzanilide], the minimal effective dose worked out at 3 mg/kg.
Consider `COCCC(=O)Nc1cc(C)c(OCCNC(C)C)c(C)c1.Cl` [Example 86, 4'-[2-(Isopropylamino)ethoxy]-3-methoxy-3',5'-dimethyl propananilide Hydrochloride], for which the minimal effective dose worked out at 3 mg/kg.
Turning to `Cc1cc(NC(=O)c2ccccc2NS(C)(=O)=O)ccc1OCCNC(C)C.Cl` [Example 75, 4'-[2-(Isopropylamino)ethoxy]-2-methanesulfonamido-3'-methylbenzanilide Hydrochloride], the minimal effective dose was determined as 10 mg/kg.
Turning to `COc1cccc(OC)c1C(=O)Nc1ccc(OCCNC(C)C)cc1` [Example 30, 4'-[2-(Isopropylamino)ethoxy]-2,6-dimethoxybenzanilide], the minimal effective dose was found to be 10 mg/kg.
Under `CS(=O)(=O)Nc1ccccc1C(=O)Nc1ccc(OCCNC2CCCC2)cc1` [Example 54] stands 10 mg/kg; under `CCNCCOc1c(C)cc(NC(=O)c2ccccc2NS(C)(=O)=O)cc1C.Cl` [Example 80, 4'-[2-(Ethylamino)ethoxy]-2-methanesulfonamido-3',5'-dimethylbenzanilide Hydrochloride], 3 mg/kg; under `CCCN(CCC)CCOc1ccc(NC(=O)c2c(OC)cccc2OC)cc1` [Example 13, 4'-[2-(Dipropylamino)ethoxy]-2,6-dimethoxybenzanilide], 10 mg/kg.
Take `Cc1cc(NC(=O)c2ccccc2S(C)(=O)=O)ccc1OCCNC(C)C.Cl` [Example 76, 4'-[2-(Isopropylamino)ethoxy]-2-methanesulfonyl-3'-methylbenzanilide Hydrochloride]: the minimal effective dose worked out at 3 mg/kg.
`CCN(CC)CCOc1ccc(NC(=O)c2c(OC)cccc2OC)c(C)c1` [Example 73, 4'-[2-(Diethylamino)ethoxy]-2-dimethoxy-2'-methyl Benzanilide]: the minimal effective dose is 3 mg/kg.
Regarding `COCCNCCOc1ccc(NC(=O)C2CCOC2)cc1.Cl` (centres unmarked) [Example 43, 4'-[2-[(2-Methoxyethyl)amino]ethoxy]-2,3,4,5-tetrahydro-3-furanilide Hydrochloride], the minimal effective dose is 10 mg/kg.
For `COc1cc(NC(=O)c2c(OC)cccc2OC)ccc1OCCNC1CCCC1.Cl` [Example 62, 4'-[2-(Cyclopentylamino)ethoxy]-2,6-dimethoxy-3'-methoxybenzanilide Hydrochloride], the minimal effective dose amounted to 10 mg/kg.
As for `CS(=O)(=O)Nc1ccccc1C(=O)Nc1ccc(OCCN2CCCC2)cc1` [Example 17, 2-Methanesulfonamido-4'-[2-(1-pyrrolidinyl)ethoxy]benzanilide], the minimal effective dose came out at 10 mg/kg.
Turning to `Cc1cc(NC(=O)c2ccccc2S(C)(=O)=O)cc(C)c1OCCNC(C)C.Cl` [Example 83, 4'-[2-(Isopropylamino)ethoxy]-2-methanesulfonyl-3',5'-dimethylbenzanilide Hydrochloride], the minimal effective dose stood at 10 mg/kg.
As for `COc1cc(NC(=O)c2ccccc2S(C)(=O)=O)ccc1OCCNC(C)C.Cl` [Example 59, 4'-[2-(Isopropylamino)ethoxy]-2-methanesulfonyl-3'-methoxybenzanilide Hydrochloride], the minimal effective dose was found to be 10 mg/kg.
Under `Cc1cc(NC(=O)c2ccoc2)cc(C)c1OCCNC(C)C.Cl` [Example 87, 4'-[2-(Isopropylamino)ethoxy]-3',5'-dimethyl-3-furanilide Hydrochloride] stands 10 mg/kg; under `COCCC(=O)Nc1ccc(OCCNC(C)C)cc1.Cl` [Example 36, 4'-[2-(Isopropylamino)ethoxy]-3-methoxypropananilide Hydrochloride], 10 mg/kg.
Take `COc1cccc(OC)c1C(=O)Nc1ccc(OCCNC(C)C)cc1C.Cl` [Example 69, 4'-[2-(Isopropylamino)ethoxy]-2,6-dimethoxy-2'-methyl benzanilide Hydrochloride]: the minimal effective dose is 3 mg/kg.
Take `COc1cccc(OC)c1C(=O)Nc1ccc(OCCNC(C)C)cc1NS(C)(=O)=O` [Example 64, 4'-[2-(Isopropylamino)ethoxy]-2'-methanesulfonamido-2,6-dimethoxybenzaniideHydrochloride]: the minimal effective dose stood at 10 mg/kg.
In the case of `CCNCCOc1ccc(NC(=O)c2ccccc2S(C)(=O)=O)cc1.Cl` [Example 22, 4'-[(2-Ethylamino)ethoxy]-2-(methanesulfonyl)benzanilide Hydrochloride], the minimal effective dose is 3 mg/kg.
Turning to `CC(C)NCCOc1ccc(NC(=O)c2ccccc2NS(C)(=O)=O)cc1.Cl` [Example 29, 4'-[2-(Isopropylamino)ethoxy]-2-(methanesulfonamido) benzanilide Hydrochloride], the minimal effective dose worked out at 0.3 mg/kg.
In the case of `Cl.O=C(Nc1ccc(OCCNC2CC2)cc1)C1CCOC1` (centres unmarked) [Example 51, 4'-[2-(Cyclopropylamino)ethoxy]-2,3,4,5-tetrahydro-3-furanilide Hydrochloride], the minimal effective dose was 3 mg/kg.
As for `Cc1cc(NC(=O)c2ccoc2)ccc1OCCNC(C)C.Cl` [Example 79, 4'-[2-(Isopropylamino)ethoxy]-3'-methyl-3-furanilide Hydrochloride], the minimal effective dose was determined as 10 mg/kg.
Turning to `CCOCCNCCOc1ccc(NC(=O)c2c(OC)cccc2OC)cc1` [Example 46, 4'-[2-[(2-Ethoxyethyl)amino]ethoxy]-2,6-dimethoxy Benzanilide], the minimal effective dose is 10 mg/kg.
Take `CCOc1cccc(OCC)c1C(=O)Nc1ccc(OCCN(CC)CC)cc1.Cl` [Example 8, 4'-[2-(Diethylamino)ethoxy]-2,6-diethoxybenzanilide Hydrochloride]: the minimal effective dose came to 10 mg/kg.
With `COCCNCCOc1ccc(NC(=O)c2ccoc2)cc1.Cl` [Example 45, 4'-[2-[(2-Methoxyethyl)amino]ethoxy]-3-furanilide Hydrochloride], the minimal effective dose was 10 mg/kg.
Take `COCCNCCOc1ccc(NC(=O)c2ccccc2NS(C)(=O)=O)cc1` [Example 42, 2-Methanesulfonamido-4'-[2-[(2-methoxyethyl)amino]ethoxy]benzanilide]: the minimal effective dose amounted to 3 mg/kg.
Consider `CCCNCCOc1ccc(NC(=O)C2CCOCC2)cc1.Cl` [Example 28, 4'-[2-(Propylamino)ethoxy]-3,4,5,6-tetrahydro-2H-pyran-4-carboxanilide Hydrochloride], for which the minimal effective dose came out at 3 mg/kg.
Consider `Cc1cccc(C)c1C(=O)Nc1ccc(OCCN2CCOCC2)cc1` [Example 19, 2,6-Dimethyl-4'-(2morpholinoethoxy)benzanilide], for which the minimal effective dose turned out to be 3 mg/kg.
